Columns and labels:
TTD–PHD (UHRF1_126–366) = biological target: T1, TTD–PHD (UHRF1_126–366) (Homo sapiens, UniProt Q96T88); assay: SES ensemble fitting of SAXS data of TTD–PHD with BPC
T1 construct: His tag (TEV-cleavable) (N); made in house
T1 sequence (Q96T88 126-366): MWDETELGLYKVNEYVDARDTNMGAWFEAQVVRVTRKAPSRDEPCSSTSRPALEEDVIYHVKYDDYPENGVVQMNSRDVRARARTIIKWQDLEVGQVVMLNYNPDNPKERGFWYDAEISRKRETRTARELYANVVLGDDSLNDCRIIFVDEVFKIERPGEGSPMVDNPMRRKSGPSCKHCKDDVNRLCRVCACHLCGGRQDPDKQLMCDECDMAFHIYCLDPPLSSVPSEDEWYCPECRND
Text: The Rg-based Kratky plot is shifted to higher coordinate values with respect to its position for apo TTD–PHD (supplemental Fig. S4). […] We performed SES fitting of SAXS data collected for TTD–PHD in the presence of BPC using MDPIN/OUT. The optimal ensemble, OEBPC(SAXS), fits the data reasonably well in the q range of 0 < q < 0.2. The Rg distribution is bimodal with the major peak at ∼25 Å and a minor peak at ∼34 Å (Fig. 4D). […] These less-compact, “linker-out” conformers should be unable to bind to H3K9me3 peptides in a cooperative manner (as in PDB code 3ASK ([10], [23])) and, in addition, be unable to bind via the isolated TTD because groove-H3K9me3 contacts found to be essential for this binding mode, as reported by Nady et al. ([9]), are blocked.
We used an ensemble approach for the structural characterization of the TTD–PHD in solution by utilizing the SES protocol ([18]). The strategy on which the SES method is based consists of two main steps: 1) generate the initial ensemble of conformations to approximate the conformational space available for a system in solution and 2) find the optimal population weight for each member of the initial ensemble that minimizes the discrepancy between the ensemble-predicted and the observed experimental data. The goodness of the ensemble fit is measured as χ^2. […] The ARMOR output was analyzed to select the optimal ensemble size using the l-curve ([18]), and the vector of the optimal weights, w, was calculated by averaging over top near optimal solutions with similar value of χ^2. […]

TTD (UHRF1_121–286) = biological target: T2, TTD (UHRF1_121–286) (Homo sapiens, UniProt Q96T88); assay: DSF thermal shift of TTD; format: binding; conditions: 0.1 mg/ml TTD, absence and presence of 3 mM BPC, 0.1 M HEPES pH 7.5, 0.15 M NaCl, 5× Sypro Orange, 4 °C/min
T2 construct: UHRF1_121–286 corresponding to the TTD; made in house
T2 sequence (Q96T88 121-286): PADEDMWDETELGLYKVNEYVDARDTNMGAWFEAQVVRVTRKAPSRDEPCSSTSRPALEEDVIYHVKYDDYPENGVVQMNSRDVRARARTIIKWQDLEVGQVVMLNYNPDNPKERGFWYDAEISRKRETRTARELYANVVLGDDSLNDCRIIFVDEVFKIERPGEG
Procedure: DSF measurements were performed with a Light Cycler 480 II instrument from Roche Applied Science. TTD (UHRF1_121–286) was buffered at 0.1 mg/ml in 0.1 M HEPES (pH 7.5), 0.15 M NaCl, and 5× Sypro Orange. Sypro Orange was purchased from Invitrogen as a 5,000× stock solution, and it was diluted 1:1,000 to yield a 5× working concentration. Experiments were run in the absence and presence of 3 mM BPC. DSF was carried out by increasing the temperature from 20 to 95 °C at a heating rate of 4 °C/min, and data points were collected at 1 °C intervals. The temperature scan curves were fitted to a Boltzmann sigmoid function, and the Tm values were obtained from the midpoint of the transition as described previously ([47]).
Figure S5 (related to Fig. 4)
Binding of BPC in the groove of TTD. […]
labeled (at the N-terminus) H3K9me3(1-25) peptide, (B) ITC, and (C) DSF. (D) KD estimates of BPC bind-ing based on I211 and Y239 amide peak movement (where Δ(ppm) = ((ΔδHN)2 + (ΔδN/6.5)2 )1⁄2) in (1H-15N) HSQC spectra when the TTD is titrated with BPC. […]
as a function of TTD sequence resulting from BPC (blue) or PBR peptide (red) binding. (F) HSQC overlays […]
ment:protein), and PBR peptide ratios (bottom spectrum - from 1:1 to 5:1 peptide:protein). The protein con-centration was ~250 µM for all NMR experiments, and the DMSO concentration was 5% for NMR titrations […]

[1] = SES fitting using MDPIN/OUT, TTD–PHD with BPC

N=C(N)N1CCC(Cc2ccccc2)CC1 [BPC, 4-benzylpiperidine-1-carboximidamide]
contribution of linker-bound structures to OEBPC(SAXS) (TTD–PHD (UHRF1_126–366); 6,000 starting structures with linker bound to groove): zero contribution | Rg distribution of OEBPC(SAXS), major peak (TTD–PHD (UHRF1_126–366); [1]): ~25 Å | Rg distribution of OEBPC(SAXS), minor peak (TTD–PHD (UHRF1_126–366); [1]): ~34 Å | ΔTm (thermal shift) (TTD (UHRF1_121–286)): 2.9 °C

— paper PMC5743070 (The Journal of Biological Chemistry, 2017)
